ChEMBL document CHEMBL1914332, “Marine diterpene glycosides” (Bioorg Med Chem, 2011)

system: MCF7; assay: Antimitotic activity in human MCF7 cells assessed as mitotic arrest after 16 to 20 hrs by ELISA method; format: functional, cell-based

IC50	SMILES
20 nM	CC(=O)O[C@@H]1[C@H](OC/C2=C/[C@@H]3[C@@H](C(C)C)CC=C(C)[C@@H]3C[C@H](OC(=O)/C=C/c3cn(C)cn3)[C@]3(C)C=C[C@@]2(OCCO)O3)OC[C@@H](O)[C@H]1O
80 nM	CC(=O)O[C@@H]1[C@H](OC/C2=C/[C@@H]3[C@@H](C(C)C)CC=C(C)[C@@H]3C[C@H](OC(=O)/C=C/c3cn(C)cn3)[C@]3(C)C=C[C@@]2(OCC(C)(C)CO)O3)OC[C@@H](O)[C@H]1O
30 nM	CO[C@]12C=C[C@](C)(O1)[C@@H](OC(=O)/C=C/c1cn(C)cn1)C[C@@H]1[C@H](/C=C\2CO[C@@H]2OC[C@@H](O)[C@@H](O)[C@@H]2OC(C)=O)[C@@H](C(C)C)C[C@@H]2O[C@@]21C
300 nM	CO[C@]12C=C[C@](C)(O1)[C@@H](OC(=O)/C=C/c1cn(C)cn1)C[C@@H]1[C@H](/C=C\2CO[C@@H]2OC[C@@H](O)[C@@H](O)[C@@H]2OC(C)=O)[C@@H](C(C)C)C[C@H]2O[C@@]12C
20000 nM	CO[C@]12C=C[C@](C)(O1)[C@@H](OC(=O)/C=C/c1cn(C)cn1)C[C@@H]1[C@H](/C=C\2CO[C@@H]2OC[C@@H](O)[C@@H](O)[C@@H]2OC(C)=O)[C@@H](C(C)C)C=C[C@@]1(C)O [CARIBAEOSIDE]
50 nM	CO[C@]12C=C[C@](C)(O1)[C@@H](OC(=O)/C=C/c1cn(C)cn1)C[C@H]1C(C)=CC[C@H](C(C)C)[C@H]1/C=C\2CO[C@@H]1OC[C@@H](O)[C@@H](OC(C)=O)[C@@H]1O [ISOELEUTHEROBIN A]

The next lines start with the molecule.

SMILES	IC50
CCO[C@]12C=C[C@](C)(O1)[C@@H](OC(=O)/C=C/c1cn(C)cn1)C[C@H]1C(CO)=CC[C@H](C(C)C)[C@H]1/C=C\2CO[C@@H]1OC[C@@H](O)[C@@H](O)[C@@H]1OC(C)=O	20 nM
CO[C@]12CC[C@](C)(O1)[C@@H](OC(=O)CCc1cn(C)cn1)C[C@@H]1[C@H](/C=C\2CO[C@@H]2OC[C@@H](O)[C@@H](O)[C@@H]2OC(C)=O)[C@@H](C(C)C)CC[C@@H]1C	> 10000 nM
CO[C@]12C=C[C@](C)(O1)[C@@H](OC(=O)CCc1cn(C)cn1)C[C@H]1C(C)=CC[C@H](C(C)C)[C@H]1/C=C\2CO[C@@H]1OC[C@@H](O)[C@@H](O)[C@@H]1OC(C)=O	20000 nM
CC(=O)O[C@@H]1[C@H](OC/C2=C/[C@@H]3[C@@H](C(C)C)CC=C(C)[C@@H]3C[C@H](OC(=O)/C=C/c3cn(C)cn3)[C@]3(C)C=C[C@@]2(O)O3)OC[C@@H](O)[C@H]1O [DESMETHYLELEUTHEROBIN]	20 nM
CO[C@]12C=C[C@](C)(O1)[C@@H](OC(=O)/C=C/c1cn(C)cn1)C[C@H]1C(C)=CC[C@H](C(C)C)[C@H]1/C=C\2CO[C@@H]1OC[C@@H](O)[C@@H](O)[C@@H]1OC(C)=O [ELEUTHEROBIN]	100 nM
CO[C@]12CC[C@](C)(O1)[C@@H](OC(=O)/C=C/c1cn(C)cn1)C[C@@H]1[C@H](/C=C\2CO[C@@H]2OC[C@@H](O)[C@@H](O)[C@@H]2OC(C)=O)[C@@H](C(C)C)CC[C@@H]1C [TETRAHYDROELEUTHEROBIN]	200 nM
